Reference: PMC6429087, “Identification of Leishmania major UDP-Sugar Pyrophosphorylase Inhibitors Using Biosensor-Based Small Molecule Fragment Library Screening” (Molecules, 2019)
Like-named read-outs stand apart in the source and are kept apart here. Blank lines part the entries; values can stand above or below the compound they belong to.

Tests used:
LmUSP [1] = biological target: T1, LmUSP (Leishmania major, UniProt D3G6S4); experiment: Bio-layer interferometry (BLI) binding to biotinylated LmUSP on Super Streptavidin biosensors; details: for Primary Binding Response: BLI primary screen, fragment 200 µM, 200 µM UTP in running buffer
Description: A vector containing the His(6)-biotin acceptor peptide (BAP) tag was kindly provided by Prof. Mike Ferguson from the University of Dundee. The BAP tag was inserted in the XbaI and NdeI restrictions site of the previously described pET22b-LmUSP [21]. The plasmid with insert was then transformed into the E. coli BL21(DE3) expression strain, and LmUSP was expressed and purified, as described previously. Exactly 2 mg of TEV protease was added to cleave off the His tag. The protein was dialyzed in 3 × 1 L Buffer C (50 mM TRIS pH 8.0, 150 mM NaCl, 10 mM MgCl2). A concentration of 100 µM D-Biotin, 500 µM ATP, and […] BirA enzyme were added to the protein and incubated for 18 hr for biotinylation. The sample was concentrated to 11 mL, using a Vivaspin 20 30 kDa PES centrifugal concentrator (Sartorious, Stonehouse, United Kingdom). The protein was loaded onto a Superdex 200 XK26/60 equilibrated with Buffer C on the AKTA Pure at 4 °C. The eluted monomeric protein was then concentrated to 0.98 mg/mL using a Vivaspin 20 30 kDa PES centrifugal concentrator, and used for loading onto super streptavidin (SSA) biosensors (Fortebio, Shanghai, China, Part No. 18-5057, Lot No. 1612162).
The loading response to SSA biosensors was measured to find the optimal protein concentration to be used for the screen. Briefly, biosensor tips were hydrated in assay buffer (50 mM Tris pH 8.0, 150 mM NaCl, 10 mM MgCl2) for a minimum of 5 min before being sequentially transferred to assay wells containing 1) assay buffer (60 s) to establish the baseline, 2) protein at 12.5, 25, or 50 µg/mL (900 s) to measure protein loading, and 3) assay buffer to assess the reversibility of protein binding to the sensor.
For fragment screening, 16 SSA biosensors were prepared by loading LmUSP (12.5 µg/mL) for 900 s; free streptavidin sites were then blocked with biocytin (10 µg/mL) for 120 s, and finally washed in buffer W (50 mM Tris pH 8.0, 150 mM NaCl, 10 mM MgCl2, 200 µM UTP) for 60 s. In parallel, another 16 SSA sensors were loaded with 10 µg/mL biocytin alone, which acts as a quenching agent to block streptavidin sites on the sensor surface, and then washed with buffer W. These were used as reference sensors.
Initial screening was performed with DDU fragment set (965 fragments) at a single point concentration of 200 µM. The assay consisted of a 60 s baseline step, a 60 s association step, and a 60 s dissociation step. The assay was repeated with the streptavidin blocked control biosensors. Response levels for each compound were calculated by baseline subtraction, and the subtraction of the reference responses from the LmUSP responses. From the initial putative hits, compounds were further validated in a […] concentration series using 3-fold dilutions of each fragment ranging from 500 µM to 2.05 µM. Data were processed, and kinetic parameters were calculated, using the ForteBio software. A visual inspection of curves alongside steady state fitting was used to identify fragments of interest.

LmUSP [2] = biological target: T1, LmUSP; experiment: HPLC-based enzyme activity assay, LmUSP (UDP-Gal production); format: biochemical; details: for IC50: 95% confidence intervals, concentrations 7 µM to 500 µM; for inhibition at 500 µM: 500 µM compound, 10% DMSO, read-out: inhibition of LmUSP activity (UDP-Gal production) compared to DMSO control
Description: (§1) Compounds were tested at a concentration of 500 µM with 20 nM enzyme in an high-performance liquid chromatography (HPLC)-based assay at a final reaction volume of 100 µL. The DMSO concentration in the reaction was kept at 10%. The reaction buffer consisted of 10 mM Tris-HCl pH 8.0, 2 mM MgCl2, 10 mM NaCl, 0.005 U of inorganic pyrophosphatase (Thermo Fisher Scientific, Vilnius, Lithuania), and 1 mM Dithiothreitol (DTT) (for LmUSP and LmUGP only). Protein was incubated with the inhibitors and UTP (final concentration of 0.8 mM in reaction) for 30 min at room temperature, before the addition of the reaction buffer. […] The samples were spun down and the supernatants applied to a Dionex CarboPac™ PA10 column (Thermo Fisher Scientific, Sunnyvale, CA, USA). UDP-Gal or UDP-Glc (products) were separated from UTP (substrate), UMP, and UDP (both, UTP hydrolysis products) with a NaCl gradient elution ranging from 0 to 500 mM NaCl over 13 min at 0.6 mL/min. Absorption of the uracil moiety was detected at 260 nm. The peak area of UDP-Gal or UDP-Glc in reactions with inhibitors was compared to a control containing 10% DMSO. Protein concentrations were calculated from the measured UV-absorbance at 280 nm (Implen NanoPhotometer N60, Implen GmbH, München, Germany), and the proteins’ individual extinction coefficients were calculated using the online ProtParam tool (http://web.expasy.org/protparam/). […] Corresponding IC50 values were calculated by using nonlinear regression analysis with variable slope, in GraphPad Prism version 4.00 (GraphPad Software, San Diego, CA, USA).

LmUGP = LmUGP (Leishmania major, UniProt Q4QDU3); experiment: HPLC-based enzyme activity assay, LmUGP (UDP-Glc production); format: biochemical; details: for IC50: 95% confidence intervals, concentrations 7 µM to 500 µM; for inhibition at 500 µM: 500 µM compound, 10% DMSO
Description: as §1

hUGP = biological target: T2, hUGP (Homo sapiens, UniProt Q16851); experiment: HPLC-based enzyme activity assay, hUGP; format: biochemical; details: 10% DMSO; for inhibition of hUGP (in words): 500 µM / high compound concentration; for decrease of hUGP activity: 500 µM compound
T2 construct: made in house
T2 sequence (Q16851 1-508): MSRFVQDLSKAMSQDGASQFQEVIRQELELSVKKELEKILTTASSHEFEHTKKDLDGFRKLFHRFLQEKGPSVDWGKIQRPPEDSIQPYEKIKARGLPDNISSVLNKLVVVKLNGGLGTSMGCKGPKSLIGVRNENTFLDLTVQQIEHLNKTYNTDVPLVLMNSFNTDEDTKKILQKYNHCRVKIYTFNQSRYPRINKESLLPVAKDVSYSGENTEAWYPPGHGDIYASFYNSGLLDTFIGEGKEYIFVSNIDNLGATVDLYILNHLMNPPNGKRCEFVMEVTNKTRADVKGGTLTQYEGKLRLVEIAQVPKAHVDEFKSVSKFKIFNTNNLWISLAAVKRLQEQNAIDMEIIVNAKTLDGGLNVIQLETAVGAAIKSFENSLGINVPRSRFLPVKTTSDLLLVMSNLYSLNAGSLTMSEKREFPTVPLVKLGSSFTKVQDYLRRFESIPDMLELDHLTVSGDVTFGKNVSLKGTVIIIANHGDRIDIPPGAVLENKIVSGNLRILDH
Description: as §1

[3] = test system: O=P(O)(O)O[C@H]1O[C@H](CO)[C@H](O)[C@H](O)[C@H]1O; experiment: purified protein, by the assay type; details: 0.8 mM UTP, 25 °C, pH 8.0
LmUSP [4] = biological target: T1, LmUSP; details: read-out: Km value of UTP; cited from earlier work
[5] = BLI 7-point concentration series 2 µM to 500 µM, steady state fitting, read-out: Estimated KD

Kd (LmUSP [1]; [5]): 67.6 µM
Primary Binding Response (LmUSP [1]): 0.1728
Compound: Cn1c(=O)n(CCN)c(=O)c2ccccc21 [DDD00808259]

inhibition of hUGP (in words) (hUGP): little effect
decrease of hUGP activity (hUGP): less than 20%
inhibition at 500 µM (LmUSP [2]): ≥ 80%
IC50 (LmUSP [2]): 135 to 175 µM
inhibition at 500 µM (LmUGP): > 95%
IC50 (LmUGP): 126 to 134 µM
Compound: O=C(Cn1c(=O)[nH]c2ccccc2c1=O)Nc1ccc2[nH]ccc2c1 [#4]

Kd (LmUSP [1]; [5]): 72.6 µM
Primary Binding Response (LmUSP [1]): 0.077
Compound: COCCNC(=O)n1c(=O)oc2ccccc21 [DDD00102262]

inhibition of hUGP (in words) (hUGP): clear inhibition
IC50 (LmUSP [2]): 47.2 to 66.4 µM
IC50 (LmUGP): 55.1 to 69.1 µM
Compound: O=C(Cn1c(=O)[nH]c2ccccc2c1=O)NCCc1c[nH]c2ccc(Cl)cc12 [#8B]

inhibition of hUGP (in words) (hUGP): little effect
decrease of hUGP activity (hUGP): less than 20%
inhibition at 500 µM (LmUSP [2]): ≥ 80%
IC50 (LmUSP [2]): 78.1 to 107 µM
inhibition at 500 µM (LmUGP): > 95%
IC50 (LmUGP): 120 to 151 µM
Compound: O=C(Cn1c(=O)[nH]c2ccccc2c1=O)NCCc1c[nH]c2ccccc12 [#8]

IC50 (LmUSP [2]): > 250 µM
IC50 (LmUGP): > 250 µM
Compound: CC(Cc1c[nH]c2ccccc12)NC(=O)Cn1c(=O)[nH]c2ccccc2c1=O (stereo not shown) [#8A]

The remaining lines, values behind:

Compound: O=C(O)Cc1cccc(C(F)(F)F)c1 [DDD00095351]
Kd (LmUSP [1]; [5]): 83.3 µM
Primary Binding Response (LmUSP [1]): 0.127

Compound: COc1ccc2[nH]cc(CCNC(=O)Cn3c(=O)[nH]c4ccccc4c3=O)c2c1 [#8C]
IC50 (LmUSP [2]): > 250 µM
IC50 (LmUGP): > 250 µM

Compound: O=C(Cn1cnc2ccccc2c1=O)NCCc1c[nH]c2ccc(F)cc12 [#8E]
inhibition of hUGP (in words) (hUGP): clear inhibition
IC50 (LmUSP [2]): 40.4 to 46.3 µM
IC50 (LmUGP): 38 to 46.8 µM

Compound: LmUSP F383R mutant (Leishmania major; F383R)
Km ([3]; other: LmUSP F383R): 364.00 ± 22.20 µM
Vmax ([3]; other: LmUSP F383R): 14.8 µmol/min/mg
kcat ([3]; other: LmUSP F383R): 17.3 s⁻¹
kcat/Km ([3]; other: LmUSP F383R): 47000 M⁻¹ s⁻¹

Compound: LmUSP V330W mutant (Leishmania major; V330W)
Km ([3]; other: LmUSP V330W): 1255.00 ± 145.66 µM
Vmax ([3]; other: LmUSP V330W): 272 µmol/min/mg
kcat ([3]; other: LmUSP V330W): 319 s⁻¹
kcat/Km ([3]; other: LmUSP V330W): 255000 M⁻¹ s⁻¹

Compound: LmUSP V199W mutant (Leishmania major; V199W)
Km ([3]; other: LmUSP V199W): 1007.25 ± 18.03 µM
Vmax ([3]; other: LmUSP V199W): 76.8 µmol/min/mg
kcat ([3]; other: LmUSP V199W): 90.2 s⁻¹
kcat/Km ([3]; other: LmUSP V199W): 89000 M⁻¹ s⁻¹

Compound: LmUSP wild type (Leishmania major)
Km ([3]; other: wild-type LmUSP): 529.20 ± 24.60 µM
Vmax ([3]; other: wild-type LmUSP): 184 µmol/min/mg
kcat ([3]; other: wild-type LmUSP): 216 s⁻¹
kcat/Km ([3]; other: wild-type LmUSP): 409000 M⁻¹ s⁻¹

Compound: O=c1ccn([C@@H]2O[C@H](COP(=O)(O)OP(=O)(O)OP(=O)(O)O)[C@@H](O)[C@H]2O)c(=O)[nH]1 [UTP, uridine triphosphate, reference compound]
Kd (LmUSP [1]): 89 µM
Km (LmUSP [4]): 100 µM

Compound: O=C(Cn1cnc2ccccc2c1=O)NCCc1c[nH]c2ccc(Cl)cc12 [#8D]
inhibition of hUGP (in words) (hUGP): clear inhibition
IC50 (LmUSP [2]): 170 to 195 µM
IC50 (LmUGP): 193 to 242 µM

Compound: CC(C(=O)O)c1cccc(F)c1 (stereo not shown) [DDD01305586]
Kd (LmUSP [1]; [5]): 60.1 µM
Primary Binding Response (LmUSP [1]): 0.1541

Compound: LmUSP V330W/F383R mutant (Leishmania major; F383R/V330W)
Km ([3]; other: LmUSP V330W/F383R): 276.45 ± 51.26 µM
Vmax ([3]; other: LmUSP V330W/F383R): 21.8 µmol/min/mg
kcat ([3]; other: LmUSP V330W/F383R): 25.6 s⁻¹
kcat/Km ([3]; other: LmUSP V330W/F383R): 93000 M⁻¹ s⁻¹
